# Results: publication PMC6636782 (PLoS Neglected Tropical Diseases, 2019)
# Entries after “also recorded” stand apart in the source; their conditions may differ. Residues, ends and D or L forms follow the SMILES beside them.
# Tests used:
# HLA-B*07:02 = target: T1, HLA-B*07:02 (Homo sapiens, UniProt P01889); test: cell-based
# T1 construct: expressed in transfected cells; host or cells: RMA-S (TAP-deficient) cells transfected with HLA-B*07:02
# [1] = system: CD4^+ T cell activation, HLA-DRB1*04:04 transgenic mice splenocytes; type: cell-based; details: acute response to rVACV-CHIKV, listed as CHIKV E2_133-145
# HLA-C*07:02 = HLA-C*07:02 (Homo sapiens, UniProt P10321)
molecule,measurement,setting,value
CC[C@H](C)[C@H](NC(=O)[C@@H](NC(=O)[C@@H]1CCCN1C(=O)[C@H](CCCNC(=N)N)NC(=O)[C@@H]1CCCN1C(=O)[C@@H](NC(=O)[C@H](Cc1c[nH]c2ccccc12)NC(=O)[C@@H]1CCCN1C(=O)[C@@H](N)CCCNC(=N)N)[C@@H](C)O)[C@@H](C)O)C(=O)O (H-RPWTPRPTI-OH),EC50,HLA-B*07:02,6 ± 6 µM
PPVIGREKFHSRP,recognition of peptide-pulsed cells by spleen cells,[1],specifically recognized; also recorded: presented and recognized as an epitope bound to DRB1*04:04
YEHVTVIPNTVGVPYK,detection in HLA-bound peptide pool,HLA-C*07:02,most likely a HLA-C*07:02 ligand
